The values below come from US20220401414A1, “TREATMENT AND PREVENTION OF A NEURODEGENERATIVE DISORDER” (Inflazome Limited, priority 2019, published 2022).

In this test the test system is PFF-Synuclein model of Parkinson's disease. Briefly: Study H: LC-MS/MS quantification of striatal dopamine and metabolites in the PFF-Synuclein mouse model. The class given is in vivo, C57BL6 mice. Particulars: ipsilateral striatum, 12 months. The text has this: To determine the oral efficacy of the compound of formula (I) in a chronic progressive model of Parkinson's disease (PD), the preformed fibrils (PFF) mouse model, using a prophylactic and therapeutic dosing schedule.
8-week-old C57BL6 male mice (obtained from ARC, Perth, Australia) were housed under a 12-h light cycle in a SPF climate-controlled facility with food and water provided ad libitum for two weeks prior to study initiation. The compound of formula (I) (or water alone for control animals) was administrated to mice in drinking water at 0.3 mg/ml. Animals were separated into the groups described in Table 9, with ten animals initiated in each cohort. For prophylactic dosing, treatment commenced one day prior to PFF-Synuclein injection. For therapeutic dosing, treatment commenced 4 months after disease induction with PFF-Synuclein.
Recombinant human a-synuclein was obtained from rPeptide Inc., and in vitro fibril generation was performed with a final concentration of 2 mg/ml in phosphate-buffered saline (PBS) by incubation at 37° C. with agitation in an orbital mixer (400 rpm) for 7 days with daily cycles of sonication used to break down fibrillar aggregates as outlined in previously published reports (see Luk et al., Science, 2012, vol. 338(6109), pp. 949-53; and Zhang et al., Methods Mol. Biol., 2019, vol. 1948, pp. 45-57, which are incorporated in their entirety herein by reference). The generation of fibrillar α-synuclein species was confirmed by transmission electron microscopy and Thioflavin T fluorescence prior to use.
. The lesion was performed using a 5 μl Hamilton syringe to deliver either vehicle or human PFF-Synuclein (8 μg) at the following coordinates relative to bregma: AP: +0.5 mm; ML: −2.0 mm; DV: −3.0 mm into the right dorsal striatum according to the stereotaxic atlas (“The mouse brain in stereotaxic coordinates” by Paxinos and Franklin, 1997). After drilling a 1 mm burr-hole in the skull, a 2 μl volume of solution was infused at the target site at the rate of 0.2 μl per minute. The needle was held in place for at least 5 minutes after injection to minimize retrograde flow along the needle tract. […]
At 12 months mice were sacrificed and striatal tissue was micro-dissected, weighed and snap-frozen at −80° C. […] Striatal dopamine (DA) and its metabolites (DOPAC and HVA) were quantified in their stable derivative form in the presence of internal standard 3,4-dihydroxybenzylamine (DHBA) using highly sensitive liquid chromatography-tandem mass spectrometry (LC-MS/MS) as described previously (Park et al., Biol. Pharm. Bull., 2013, vol. 36(2), pp. 252-8). […] For quantitation, one transition per analyte was monitored and two transitions per analyte were monitored for qualitative purposes.

Setting [1] is: prophylactic and therapeutic treated mice.

As for `CC(C)n1ccc(S(=O)(=O)NC(=O)Nc2c3c(cc4c2CCC4)CCC3)n1` [compound of formula (I)], under setting [1], the “striatal DOPAC compared to the untreated PFF mice” value is given as “significantly higher” and the “striatal HVA compared to the untreated PFF mice” value is “significantly higher”. For the same compound, the “striatal dopamine concentrations compared with untreated PFF-syn mice” value (prophylactic, P<0.02) is reported as “significantly higher striatal dopamine concentrations”. Further, the “striatal dopamine concentrations compared with untreated PFF-syn mice” value (therapeutic, P<0.05) is “significantly higher striatal dopamine concentrations”.
